The values that follow come from ChEMBL document CHEMBL5725203, “Quinazolinone compounds and derivatives thereof” (2016).

As usually defined, the IC50 is the concentration needed to halve the response being measured.

The target in experiment [1] is Poly [ADP-ribose] polymerase 1 (Homo sapiens, UniProt P09874). Description: (§1) Biochemical Assay: PARP1 biochemical assay was purchased as a kit from Trevigen (cat.#4676-096-K) and used per manufacturers recommendations.PARP2 biochemical assay was purchased as a kit from BPS (cat.#80552) and used per manufacturers recommendations.
Sequence of Poly [ADP-ribose] polymerase 1 (P09874 whole entry): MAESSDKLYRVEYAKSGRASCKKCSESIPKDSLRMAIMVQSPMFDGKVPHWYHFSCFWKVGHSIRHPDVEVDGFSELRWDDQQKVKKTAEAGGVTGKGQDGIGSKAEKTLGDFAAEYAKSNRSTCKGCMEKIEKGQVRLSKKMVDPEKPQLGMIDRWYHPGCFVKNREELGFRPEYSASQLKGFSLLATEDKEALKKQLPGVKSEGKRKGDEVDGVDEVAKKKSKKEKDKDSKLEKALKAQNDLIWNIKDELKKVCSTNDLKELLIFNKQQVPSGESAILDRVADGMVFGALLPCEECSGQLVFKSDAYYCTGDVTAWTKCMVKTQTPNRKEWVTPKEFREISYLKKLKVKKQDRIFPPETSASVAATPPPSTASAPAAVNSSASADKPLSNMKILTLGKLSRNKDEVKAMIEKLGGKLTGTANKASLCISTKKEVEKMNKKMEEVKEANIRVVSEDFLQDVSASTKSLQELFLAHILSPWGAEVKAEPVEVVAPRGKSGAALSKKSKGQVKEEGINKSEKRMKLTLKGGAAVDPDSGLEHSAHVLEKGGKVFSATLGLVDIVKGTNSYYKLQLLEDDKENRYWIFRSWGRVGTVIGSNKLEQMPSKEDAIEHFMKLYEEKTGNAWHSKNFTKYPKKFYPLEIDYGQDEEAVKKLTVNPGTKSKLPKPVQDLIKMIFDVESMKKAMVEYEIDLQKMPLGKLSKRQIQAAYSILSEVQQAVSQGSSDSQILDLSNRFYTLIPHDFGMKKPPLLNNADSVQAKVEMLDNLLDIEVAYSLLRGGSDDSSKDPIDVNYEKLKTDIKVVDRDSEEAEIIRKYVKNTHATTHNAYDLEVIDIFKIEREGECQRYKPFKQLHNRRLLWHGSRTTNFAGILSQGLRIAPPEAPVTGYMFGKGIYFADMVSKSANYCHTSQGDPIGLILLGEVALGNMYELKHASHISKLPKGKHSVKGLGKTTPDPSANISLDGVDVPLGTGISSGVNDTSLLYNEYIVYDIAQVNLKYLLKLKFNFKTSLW
Experiment [2] addresses Poly [ADP-ribose] polymerase 2 (Homo sapiens, UniProt Q9UGN5). The experiment is described as §1.

Sequence of Poly [ADP-ribose] polymerase 2 (Q9UGN5 whole entry): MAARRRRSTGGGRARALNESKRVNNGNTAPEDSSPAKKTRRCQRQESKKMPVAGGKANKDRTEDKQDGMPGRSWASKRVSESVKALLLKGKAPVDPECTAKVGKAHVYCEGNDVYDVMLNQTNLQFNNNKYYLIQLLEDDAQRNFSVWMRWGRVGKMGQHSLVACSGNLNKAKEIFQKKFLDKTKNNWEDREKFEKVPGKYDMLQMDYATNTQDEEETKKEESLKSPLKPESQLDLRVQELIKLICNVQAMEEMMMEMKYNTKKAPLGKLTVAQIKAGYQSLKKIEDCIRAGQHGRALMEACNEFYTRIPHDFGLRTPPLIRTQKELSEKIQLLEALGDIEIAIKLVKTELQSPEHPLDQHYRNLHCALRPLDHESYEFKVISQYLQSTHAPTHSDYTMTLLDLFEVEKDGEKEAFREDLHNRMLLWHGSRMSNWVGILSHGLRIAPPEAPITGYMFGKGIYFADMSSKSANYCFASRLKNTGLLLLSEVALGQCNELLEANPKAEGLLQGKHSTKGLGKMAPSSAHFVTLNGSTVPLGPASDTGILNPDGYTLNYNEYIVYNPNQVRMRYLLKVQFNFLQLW

For the compound `O=C1Nc2cc(Cl)ccc2C1C1CCN(C(=O)CCCc2nc3ccccc3c(=O)[nH]2)CC1` (racemic), the IC50 in experiment [1] is 7350 nM; in experiment [2], 251 nM.

In the case of `COc1ccc2c(c1)[nH]c(=O)n2C1CCN(C(=O)CCCc2nc3ccccc3c(=O)[nH]2)CC1`, the 50% inhibitory concentration (IC50) in experiment [1] stood at 1780 nM; in experiment [2] it was 160 nM.

As to `O=C(CCCc1nc2ccccc2c(=O)[nH]1)N1CCN(c2noc3ccccc23)CC1`, the IC50 in experiment [1] came to 992 nM; in experiment [2], 333 nM.

As for `O=C(CCSc1nc2ccccc2c(=O)[nH]1)N[C@H]1CC[C@H](c2nnc(-c3ccncc3)o2)CC1`, the IC50 in experiment [1] stood at 10200 nM; in experiment [2] it was 3020 nM.

`O=C(CCCc1nc2ccccc2c(=O)[nH]1)N1CCC(n2nnc3ccccc32)CC1`: the IC50 was 2260 nM in experiment [1] and 1370 nM in experiment [2].

With `O=C(CCc1nc2ccccc2c(=O)[nH]1)N[C@H]1CC[C@H](n2c(=O)oc3ccccc32)CC1`, the values for the IC50 in experiment [1] and in experiment [2] were 2260 nM and 3080 nM, respectively.

Turning to `O=C(CCCc1nc2ccccc2c(=O)[nH]1)N1CCC(c2noc3ccc(F)cc23)CC1`, the IC50 in experiment [1] came out at 5570 nM; in experiment [2], 1440 nM.

For `O=C(CCCc1nc2ccccc2c(=O)[nH]1)N[C@H]1CC[C@H](Oc2ccccc2)C1`, the values for the IC50 in experiment [1] and in experiment [2] were 1290 nM and 893 nM, respectively.

With `O=C(CCc1cc(=O)n2ccccc2n1)N[C@H]1CC[C@H](c2nnc(-c3ccccc3)o2)CC1`, the IC50 in experiment [1] was more than 85000 nM.
